The record followed here is article PMC6024778 (Viruses, 2018).

In the experiment the test system is rMERS-CoV-S2. It is filed as cell-based, MERS-CoV.

As usually defined, the EC50 is the concentration at which the effect is half-maximal. Low readings indicate an effect from little substance, high ones a need for much substance.

In the case of `CN1CCN(CCOc2cc(OC3CCOCC3)c3c(Nc4c(Cl)ccc5c4OCO5)ncnc3c2)CC1` [Saracatinib], the response was half-maximal at 9 µM (EC50).
